# In patent US20060069132A1, “Azolecarboxamide herbicides” (priority 2004, published 2006):
# Key:
# barnyardgrass [1] = assay: Test A pre-/postemergence herbicide test; type: in vivo, Echinochloa crus-galli
# Outline: (§1)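 Visual injury rating on a 0–100 scale (0 no effect, 100 complete control) versus untreated controls, about ten days after treatment in greenhouse. Pre: directed soil spray onto seeded sandy loam. Post: spray to runoff on plants 2–10 cm tall at one- to two-leaf stage.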
# large crabgrass [2] = assay: Test A pre-/postemergence herbicide test; type: in vivo, Digitaria sanguinalis
# Outline: as §1
# giant foxtail [3] = assay: Test A pre-/postemergence herbicide test; type: in vivo, Setaria faberi
# Outline: as §1
# morningglory [4] = assay: Test A pre-/postemergence herbicide test; type: in vivo, Ipomoea spp.
# Outline: as §1
# redroot pigweed = assay: Test A pre-/postemergence herbicide test; type: in vivo, Amaranthus retroflexus
# Outline: as §1
# velvetleaf [5] = assay: Test A pre-/postemergence herbicide test; type: in vivo, Abutilon theophrasti
# Outline: as §1
# rice [6] = assay: Test B flooded paddy test; type: in vivo, Oryza sativa; details: scale 0 to 100 (0 no effect, 100 complete control)
# Outline: (§2)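 After treating 2-leaf paddy plants or 2–18 cm postemergence plants (1 to 4 leaves) with formulated chemical, researchers kept them in a greenhouse for 13–15 days. Effects were judged visually versus controls: 0 indicates none, 100 total control.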
# [7] = tested on: small flower umbrella sedge; assay: Test B flooded paddy test; type: in vivo, Cyperus difformis; details: scale 0 to 100 (0 no effect, 100 complete control)
# Outline: (§3)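 Formulated test chemicals went onto postemergence plants measuring 2 to 18 cm, at one to four leaves. For the paddy assay, species had reached two leaves. Scoring took place 13–15 days later by eye, relative to untreated plants, using 0 for no effect up to 100 for full control.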
# ducksalad [8] = assay: Test B flooded paddy test; type: in vivo, Heteranthera limosa; details: scale 0 to 100 (0 no effect, 100 complete control)
# Outline: as §3
# barnyardgrass [9] = assay: Test B flooded paddy test; type: in vivo, Echinochloa crus-galli; details: scale 0 to 100 (0 no effect, 100 complete control)
# Outline: as §3
# barnyardgrass [10] = assay: Test B pre-/postemergence herbicide test; type: in vivo, Echinochloa crus-galli; details: for Barnyardgrass plant response rating: Postemergence, scale 0 (no effect) to 100 (complete control)
# Outline: (§4)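 Plants compared with untreated controls 13–15 days post-treatment and given a visual 0–100 injury score. Applications: preemergence to seeds; postemergence at 1- to 4-leaf (2–18 cm); paddy species flooded, 2-leaf stage. Vehicle non-phytotoxic, surfactant included.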
# Surinam grass = assay: Test B pre-/postemergence herbicide test; type: in vivo, Urochloa decumbens
# Outline: (§5)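 Flooded paddy rice and barnyardgrass were treated at the 2-leaf stage; upland plantings received compound either on sown seed or on 1- to 4-leaf seedlings. All were kept 13–15 days in a greenhouse and scored visually, 0–100, relative to untreated plants.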
# cocklebur = assay: Test B pre-/postemergence herbicide test; type: in vivo, Xanthium strumarium
# Outline: as §4
# corn = assay: Test B pre-/postemergence herbicide test; type: in vivo, Zea mays
# Outline: as §5
# large crabgrass [11] = assay: Test B pre-/postemergence herbicide test; type: in vivo, Digitaria sanguinalis
# Outline: as §5
# giant foxtail [12] = assay: Test B pre-/postemergence herbicide test; type: in vivo, Setaria faberi
# Outline: as §5
# lambsquarters = assay: Test B pre-/postemergence herbicide test; type: in vivo, Chenopodium album
# Outline: as §5
# morningglory [13] = assay: Test B pre-/postemergence herbicide test; type: in vivo, Ipomoea coccinea
# Outline: as §4
# pigweed = assay: Test B pre-/postemergence herbicide test; type: in vivo, Amaranthus retroflexus
# Outline: as §5
# velvetleaf [14] = assay: Test B pre-/postemergence herbicide test; type: in vivo, Abutilon theophrasti
# Outline: as §5
# blackgrass = assay: Test B postemergence herbicide test; type: in vivo, Alopecurus myosuroides
# Outline: as §3
# wheat = assay: Test B postemergence herbicide test; type: in vivo, Triticum aestivum; design: key to Wheat plant response rating: 0 = no effect, 100 = complete control
# Outline: as §2
# wild oat = assay: Test B postemergence herbicide test; type: in vivo, Avena fatua
# Outline: as §2
# rice [15] = assay: Test C flooded paddy test; type: in vivo, Oryza sativa
# Outline: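 Injury scored visually against controls on a 0 (no effect) to 100 (complete control) scale, 12 to 14 days after treatment in greenhouse. Flooded paddy plants treated at 2-leaf stage; postemergence plants at 1- to 4-leaf stage, 2 to 18 cm tall.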
# [16] = tested on: smallflower umbrella sedge; assay: Test C flooded paddy test; type: in vivo, Cyperus difformis
# ducksalad [17] = assay: Test C flooded paddy test; type: in vivo, Heteranthera limosa
# barnyardgrass [18] = assay: Test C flooded paddy test; type: in vivo, Echinochloa crus-galli
# Outline: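 Weeds and wheat were sprayed after emergence, at a height of 2 to 18 cm (1–4 leaves), and paddy barnyardgrass was flooded and treated at two leaves. Assessment took place 12–14 days later in the greenhouse on a 0-to-100 visual control scale. A dash means no result was obtained.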
# [19] = Postemergence, 125 g ai/ha, 0 to 100 scale, 0 no effect, 100 complete control
# [20] = Postemergence, 500 g ai/ha, 0 to 100 scale, 0 no effect, 100 complete control
# [21] = preemergence, 125 g ai/ha, visual injury, 0 to 100 scale (0 no effect, 100 complete control)
# [22] = preemergence, 500 g ai/ha, visual injury, 0 to 100 scale (0 no effect, 100 complete control)
# [23] = 125 g ai/ha, 0 is no effect, 100 is complete control, preemergence
# [24] = Postemergence, 500 g ai/ha, scale 0 (no effect) to 100 (complete control)
# [25] = postemergence, 125 g ai/ha, scale 0 to 100
# [26] = 125 g ai/ha, scale 0 to 100 (0 no effect, 100 complete control)
# [27] = 250 g ai/ha, scale of 0 to 100, 0 is no effect, 100 is complete control
# [28] = 500 g ai/ha, visual rating after 12 to 14 days, scale 0 to 100 (0 no effect, 100 complete control)
smiles,measurement,setting,value
CCn1nc(C(C)(C)C)nc1C(=O)Nc1cccc(C(=O)N(C)C)c1 [Compound 448],Barnyardgrass plant response rating,barnyardgrass [1]; [19],90
same,Barnyardgrass plant response rating,barnyardgrass [1]; [20],90
same,Barnyardgrass plant response rating,barnyardgrass [1]; [21],95
same,Barnyardgrass plant response rating,barnyardgrass [1]; [22],100
same,"Crabgrass, Large plant response rating",large crabgrass [2]; [19],75
same,"Crabgrass, Large plant response rating",large crabgrass [2]; [20],80
same,"Crabgrass, Large plant response rating",large crabgrass [2]; [21],45
same,"Crabgrass, Large plant response rating",large crabgrass [2]; [22],85
same,"Foxtail, Giant plant response rating",giant foxtail [3]; [19],85
same,"Foxtail, Giant plant response rating",giant foxtail [3]; [20],90
same,"Foxtail, Giant plant response rating",giant foxtail [3]; [21],80
same,"Foxtail, Giant plant response rating",giant foxtail [3]; [22],100
same,Morningglory plant response rating,morningglory [4]; [19],15
same,Morningglory plant response rating,morningglory [4]; [20],55
same,Morningglory plant response rating,morningglory [4]; [21],60
same,Morningglory plant response rating,morningglory [4]; [22],60
same,Pigweed plant response rating,redroot pigweed; [19],70
same,Pigweed plant response rating,redroot pigweed; [20],90
same,Pigweed plant response rating,redroot pigweed; [21],100
same,Pigweed plant response rating,redroot pigweed; [22],100
same,Velvetleaf plant response rating,velvetleaf [5]; [19],60
same,Velvetleaf plant response rating,velvetleaf [5]; [20],80
same,Velvetleaf plant response rating,velvetleaf [5]; [21],15
same,Velvetleaf plant response rating,velvetleaf [5]; [22],85
same,Rice plant response rating,rice [6]; 125 g ai/ha,80
same,Rice plant response rating,rice [6]; 500 g ai/ha,90
same,"Sedge, Umbrella plant response rating",[7]; 125 g ai/ha,90
same,"Sedge, Umbrella plant response rating",[7]; 500 g ai/ha,90
same,Ducksalad plant response rating,ducksalad [8]; 125 g ai/ha,70
same,Ducksalad plant response rating,ducksalad [8]; 500 g ai/ha,80
same,Barnyardgrass plant response rating,barnyardgrass [9]; 125 g ai/ha,90
same,Barnyardgrass plant response rating,barnyardgrass [9]; 500 g ai/ha,100
CCc1nn(C(C)C)nc1C(=S)Nc1cccc(C(=S)N(C)C)c1 [Compound 410],"Plant response rating (0 to 100 scale), Barnyardgrass",barnyardgrass [10]; [23],100
same,Barnyardgrass plant response rating,barnyardgrass [10]; 125 g ai/ha,0
same,Barnyardgrass plant response rating,barnyardgrass [10]; 500 g ai/ha,0
same,"Plant response rating (0 to 100 scale), Surinam Grass",Surinam grass; [23],60
same,Surinam Grass plant response rating,Surinam grass; [24],0
same,Surinam Grass plant response rating,Surinam grass; [25],0
same,"Plant response rating (0 to 100 scale), Cocklebur",cocklebur; [23],0
same,Cocklebur plant response rating,cocklebur; [24],10
same,Cocklebur plant response rating,cocklebur; [25],0
same,"Plant response rating (0 to 100 scale), Corn",corn; [23],0
same,Corn plant response rating,corn; [24],10
same,Corn plant response rating,corn; [25],0
same,"Plant response rating (0 to 100 scale), Crabgrass, Large",large crabgrass [11]; [23],90
same,"Crabgrass, Large plant response rating",large crabgrass [11]; [24],20
same,"Crabgrass, Large plant response rating",large crabgrass [11]; [25],0
same,"Plant response rating (0 to 100 scale), Foxtail, Giant",giant foxtail [12]; [23],30
same,"Foxtail, Giant plant response rating",giant foxtail [12]; [24],20
same,"Foxtail, Giant plant response rating",giant foxtail [12]; [25],10
same,"Plant response rating (0 to 100 scale), Lambsquarters",lambsquarters; [23],100
same,Lambsquarters plant response rating,lambsquarters; [24],70
same,Lambsquarters plant response rating,lambsquarters; [25],20
same,"Plant response rating (0 to 100 scale), Morningglory",morningglory [13]; [23],30
same,Morningglory plant response rating,morningglory [13]; [24],80
same,Morningglory plant response rating,morningglory [13]; [25],0
same,"Plant response rating (0 to 100 scale), Pigweed",pigweed; [23],60
same,Pigweed plant response rating,pigweed; [24],70
same,Pigweed plant response rating,pigweed; [25],0
same,"Plant response rating (0 to 100 scale), Velvetleaf",velvetleaf [14]; [23],30
same,Velvetleaf plant response rating,velvetleaf [14]; [24],0
same,Velvetleaf plant response rating,velvetleaf [14]; [25],0
same,Blackgrass plant response rating,blackgrass; [24],30
same,Blackgrass plant response rating,blackgrass; [25],10
same,Wheat plant response rating,"wheat; 500 g ai/ha, scale 0 to 100, 0 no effect, 100 complete control, preemergence",90
same,Wheat plant response rating,wheat; [24],10
same,Wheat plant response rating,wheat; [25],0
same,"Oat, Wild plant response rating",wild oat; [24],10
same,"Oat, Wild plant response rating",wild oat; [25],0
same,Rice plant response rating,rice [6]; 1000 g ai/ha,60
same,"Sedge, Umbrella plant response rating",[7]; 1000 g ai/ha,80
same,Ducksalad plant response rating,ducksalad [8]; 1000 g ai/ha,80
same,Barnyardgrass plant response rating,barnyardgrass [9]; 1000 g ai/ha,80
same,Rice plant response rating,"rice [15]; 62 g ai/ha, scale 0 to 100",20
same,Rice plant response rating,rice [15]; [26],40
same,Rice plant response rating,rice [15]; [27],60
same,"Plant response rating, Rice",rice [15]; [28],60
same,"Sedge, Umbrella plant response rating","[16]; 62 g ai/ha, scale 0 to 100",70
same,"Sedge, Umbrella plant response rating",[16]; [26],75
same,"Sedge, Umbrella plant response rating",[16]; [27],80
same,"Plant response rating, Sedge, Umbrella",[16]; [28],85
same,Ducksalad plant response rating,"ducksalad [17]; 62 g ai/ha, scale 0 to 100",30
same,Ducksalad plant response rating,ducksalad [17]; [26],40
same,Ducksalad plant response rating,ducksalad [17]; [27],60
same,"Plant response rating, Ducksalad",ducksalad [17]; [28],60
same,Barnyardgrass plant response rating,"barnyardgrass [18]; 62 g ai/ha, scale 0 to 100 (0 no effect, 100 complete control)",0
same,Barnyardgrass plant response rating,barnyardgrass [18]; [26],20
same,Barnyardgrass plant response rating,barnyardgrass [18]; [27],60
same,"Plant response rating, Barnyardgrass",barnyardgrass [18]; [28],65
